The values below come from patent US20220125839A1, “COMBINATION OF T-CELL THERAPY AND TARGETED THERAPY FOR TREATING THERAPY-RESISTANT MELANOMA WITH MUTATIONS IN THE BRAF GENE” (H. LEE MOFFITT CANCER CENTER AND RESEARCH INSTITUTE, INC., priority 2019, published 2022).

Series [1] concerns M6PR. Put plainly: Cell surface M6PR expression by flow cytometry in PLX4720-resistant WM983B-BR cells. Type of series: cell-based, human. (Flow cytometry measures light scatter and fluorescence of single cells or particles in a stream.)
Protocol: WM35 human melanoma and HLA-matched human tumor infiltrating lymphocytes (TIL) were generated at H. Lee Moffitt Cancer Center and Research Institute, Tampa, Fla., USA). Human melanoma cells lines WM983B and WM983B-BR were maintained in Dulbecco's Modified Eagles medium (DMEM) (Gibco), other human melanoma cell lines were maintained in RPMI medium supplemented with 10% fetal bovine serum (FBS, Sigma-Aldrich, St. Louis, Mo.) and 1% Pen/Strep (Corning; Cat. no. 30-002-Cl) at 37° C., 5% CO2. PLX4720-resistant cells were kept in cell culture media supplemented with 1 μM PLX4720 to keep these cells resistant against the drug. 350 μg/mL Hygromycin B (Invitrogen; Cat. no. 10687010) was kept in the culture media of WM983B-BR-pAHygCMV2, WM983B-BR-M6PR/IGF2R, WM35-pAHygCMV2, WM35-M6PR/IGF2R cells after transfection. Tumor cell lines were tested for mycoplasma contamination by using Universal Mycoplasma detection kit (ATCC) regularly. Human melanoma cells were treated with 1-10 μM PLX4720 (Selleckchem; Cat. no. S1152), 25-100 nmol/mL (nM) Trametinib (Selleckchem; Cat. no. S2673). Hypoxia (0.5% 02) was maintained using hypoxic chamber (BioSpherix).
M6PR expression levels were detected by flow cytometry. […] Cells were fixed using 1% paraformaldehyde for 20 minutes at 4° C. before running them on LSR14. Data was analyzed by FlowJo software (Tree Star).
(§1) To maintain consistency with the results obtained on sensitive cell lines and to better assess the effect of BRAFi on the sensitivity of tumor cells to CTLs, we generated an additional BRAFi resistant cell line WM35-BR by exposing WM35 cells to increased concentrations of PLX4720. Resistant cell lines (WM983B-BR and WM35-BR) were treated with 1 μM or 10 μM PLX4720 for different times, and cell surface M6PR levels were determined by flow cytometry.
Another series relates to WM983B-M6PR-KO cells. Put plainly: Granzyme B (GrzB) uptake by WM983B-M6PR-KO cells. Type of series: cell-based, human. The note with it: WM983B-M6PR-KO (absence of M6PR); overnight, then inactive GrzB 1 hour. Here is the method:
Cells were then stained with Aqua dead cell staining kit (Thermo Fischer Scientific) for 15 min at 4° C. fixed in fixation buffer (BD Cytofix/Cytoperm; Cat. no. 51-2090). Granzyme B antibody (Cat. no. 561142) or its isotype control (BD Bioscience; Cat. no. 555749) were used. Stained cells were run on LSR14. Data was analyzed by FlowJo software (Tree Star).
To investigate if M6PR has a direct role in the increased uptake of GrzB induced by PLX4720, we generated a WM983B-M6PR-KO cell line lacking M6PR expression, using Crispr/Cas9 technology. Deletion of M6PR was confirmed by western blotting (FIG. 8A) and flow cytometry (FIG. 8B). WM983B and WM983B-M6PR-KO cells were cultured with DMSO or different concentrations of PLX4720. […] To test the sensitivity of WM983B cells to CTLs, we expanded TILs isolated from a HLA-A1+ patient with metastatic melanoma. These TILs recognized HLA-A1+WM983B cells. As targets, we used WM983B and WM983B-M6PR-KO cells. […] BRAFi sensitive and resistant WM983B cells were recognized by CTLs equally well (FIG. 8E). […] Herein was asked whether manipulation with expression of M6PR could affect expression of molecules associated with antigen presentation and regulation of immune responses by tumor cells. We evaluated expression of MHC class I, MHC class II, PDL1, and FasL on tumor cells with overexpression or deletion of M6PR.

Series [2] concerns M6PR. Put plainly: Cell surface M6PR expression by flow cytometry in WM983B melanoma cells. The format is cell-based, human. Here is the method: Human studies were approved by The Wistar Institute IRB. Peripheral blood was collected from healthy volunteers after obtaining informed consent. Animal experiments were approved by The Wistar Institute Animal Care and Use Committee. The mice were kept under pathogen free conditions. Experiments were carried out using female NSG mice or female and male nonobese diabetic/severe combined immunodeficient (NOD/SCID) mice, obtained from the mouse facility of the Wistar Institute and Charles River Laboratories, respectively. WM35 human melanoma and HLA-matched human tumor infiltrating lymphocytes (TIL) were generated at H. Lee Moffitt Cancer Center and Research Institute, Tampa, Fla., USA). […] Louis, Mo.) and 1% Pen/Strep (Corning; Cat. no. 30-002-Cl) at 37° C., 5% CO2. PLX4720-resistant cells were kept in cell culture media supplemented with 1 μM PLX4720 to keep these cells resistant against the drug. 350 μg/mL Hygromycin B (Invitrogen; […] Tumor cell lines were tested for mycoplasma contamination by using Universal Mycoplasma detection kit (ATCC) regularly. […] Cat. no. […] Cat. no. S2673). Hypoxia (0.5% 02) was maintained using hypoxic chamber (BioSpherix). […] Cells were incubated with Aqua dead cell staining kit (Thermo Fischer Scientific; Cat. no. […] Cat. no. 565105; clone no. MEM-238) or its isotype (BD Biosciences; Cat. no. 557732; clone no. MOPC-21) at 4° C. for 20 minutes. Cells were fixed using 1% paraformaldehyde for 20 minutes at 4° C. before running them on LSR14. Data was analyzed by FlowJo software (Tree Star).

Series [3] concerns WM35-BR cells. Put plainly: CTL assay (51Cr release), WM35-BR targets with HLA-matched TIL. The conditions noted are these: overnight treatment. The format is cell-based, human.
Protocol: For Chromium (^51Cr) release assays, 1×10^6 human melanoma cells were incubated with 100 μCi ^51Cr (Perkin-Elmer; Cat. no. NEZ030S001MC; 1 mCi/mL) at 37° C. for 60 minutes, washed 3 times with sterile PBS and plated into 96-well round-bottom plates at a cell density of 1×10^4 tumor target cells/well. Target cells were incubated with human CD8+ TILs in triplicates at the indicated effector/target (E) ratios in 200 μl culture medium at 37° C. in a humidified CO2 incubator. After incubation, plates were centrifuged, 50 μl supernatant was harvested from each well and ^51Cr release was measured using a gamma counter. The percent specific lysis was calculated as follows: 100×[(experimental release−spontaneous release)/(maximum release−spontaneous release)]. As controls, T cells isolated from blood of healthy donor were used.
The test system of the next series is WM35 cells. Put plainly: Granzyme B (GrzB) uptake by WM35 cells. Type of series: cell-based, human. The conditions noted are these: overnight PLX4720, then inactive GrzB for an hour.
The subject of series [4] is M6PR. Description: IHC staining of M6PR in WM35-BR tumors in NOD/SCID mice. The format is in vivo.
Protocol: Tumor tissues were harvested, fixed overnight with 4% paraformaldehyde (Electron Microscopy Science; Cat. no. 15710) at 4° C., embedded in paraffin blocks and 4-5 μm thick sections of the tissue were prepared and stained with polyclonal goat M6PR/IGF2R primary antibody (R&D Systems; Cat. no. AF2447; 5 μg/mL per samples) O/N at 4° C. Biotinylated 2nd antibody in 1:200 dilution was used for 30 min at RT followed by application of ABC solution (avidin dehydroxygenase and biotinylated horseradish peroxidase) for 30 min at RT. DAB 0.05% solution was applied for 3-4 min at RT. Hematoxylin was used for counterstaining the nucleus. Images were analyzed using Nis-Elements Ar (Advanced Research) Nikon 80i Upright Microscope with 40×N.A. objective. Each slide was scanned, images were manually captured at separate X, Y locations and a multipoint ND document was created point by point. A threshold value was defined for each image (for brown M6PR staining) using the single point selection tool. […]
WM35-BR tumor cells were injected subcutaneously to the flank of NOD/SCID mice and once the average tumor area reached around 40-50 mm2 in size, mice were treated with vehicle or 50 mg/kg PLX4720 by oral gavage for 5 days. After 5 days of PLX4720 treatment, tumors were harvested at different time points and M6PR expression in tumor tissues was detected by IHC staining.
Series [5] relates to M6PR. Description: Cell surface M6PR expression by flow cytometry in PLX4720-resistant WM35-BR cells. Type of series: cell-based, human. The note with it: 1 μM or 10 μM PLX4720.
Protocol: WM35 human melanoma and HLA-matched human tumor infiltrating lymphocytes (TIL) were generated at H. Lee Moffitt Cancer Center and Research Institute, Tampa, Fla., USA). Human melanoma cells lines WM983B and WM983B-BR were maintained in Dulbecco's Modified Eagles medium (DMEM) (Gibco), other human melanoma cell lines were maintained in RPMI medium supplemented with 10% fetal bovine serum (FBS, Sigma-Aldrich, St. Louis, Mo.) and 1% Pen/Strep (Corning; Cat. no. 30-002-Cl) at 37° C., 5% CO2. PLX4720-resistant cells were kept in cell culture media supplemented with 1 μM PLX4720 to keep these cells resistant against the drug. 350 μg/mL Hygromycin B (Invitrogen; Cat. no. 10687010) was kept in the culture media of WM983B-BR-pAHygCMV2, WM983B-BR-M6PR/IGF2R, WM35-pAHygCMV2, WM35-M6PR/IGF2R cells after transfection. […]
M6PR expression levels were detected by flow cytometry. […] Data was analyzed by FlowJo software (Tree Star).
as §1
The subject of series [6] is WM35-BR cells. Description: Tumor growth of WM35-BR xenografts in NOD/SCID mice. The format is in vivo. The note with it: PLX4720 50 mg/kg for 10 days, TIL i.v. twice at a 4 day interval. Here is the method: In order to establish xenograft models, cultured WM35, WM35-BR, WM983B-BR-pAHygCMV2 and WM983B-BR-M6PR/IGF2R cells were harvested, suspended in sterile PBS, mixed in 2:1 ratio with Matrigel and injected subcutaneously into the left flank of mice (1-3×10^6 cells per mouse). PLX4720 was administered daily at dose 50 mg/kg for 10 days via oral gavage. As a control, mice treated with vehicle alone (2% DMSO, 50% PEG 300, 5% Tween 80) were used. Treatments were started when tumors were 0.5-0.8 cm in diameter.
We next tested whether PLX-induced M6PR up-regulation on the cell surface of resistant cells sensitized them to HLA-matched TIL. […] We asked whether BRAFi could sensitize resistant tumors to TILs in vivo. WM35-BR cells were injected subcutaneously to the flanks of immune deficient NOD/SCID mice and when tumors became palpable, mice were split to 4 groups. Mice treated with vehicle alone, mice treated with 50 mg/kg PLX4720 for 10 days, mice treated with CD8+ T-cell enriched TIL i.v. twice at a 4 day interval and mice treated with combination of PLX4720 and TILs.

As for `CCCS(=O)(=O)Nc1ccc(F)c(C(=O)c2c[nH]c3ncc(Cl)cc23)c1F` [PLX4720], the “M6PR expression under hypoxia” value in the series with M6PR [1] (BRAF resistant cells (WM983B-BR), hypoxia) was “increased M6PR expression”. Further, the “M6PR on the cell surface” value in the series on M6PR [1] (WM983B-BR, 1 μM or 10 μM PLX4720) is listed as “further substantial up-regulation of MP6R on the cell surface”; in the series on M6PR [2] (1 μM, 2.5, 5 or 10 μM PLX4720, within 6 hours), “substantial dose-dependent up-regulation of M6PR on the cell surface”; with M6PR [5], “further substantial up-regulation of MP6R on the cell surface”. The “M6PR levels after 24 hours of treatment” value in the series on M6PR [1] (WM983B-BR, 24 hours) was “did not decrease to pre-treatment levels”. Besides, the “PLX4720-inducible GrzB uptake” value with WM983B-M6PR-KO cells was “up-regulation of GrzB uptake was abrogated”. Also, the “expression of M6PR during hypoxia” value in the series on M6PR [2] (0.5% O2, within 3 hours after starting treatment, 10 μM) is “significant (p<0.0001) increase in the expression of M6PR”. The “M6PR up-regulation, hypoxia compared with normoxia” value in the series with M6PR [2] (0.5% O2 vs normoxia) is on record as “more pronounced under hypoxic conditions than in normoxia”. In addition, the “M6PR expression twenty-four hours after starting treatment” value in the series with M6PR [2] (24 hours) is “no up-regulation of M6PR expression”. Moreover, the “M6PR expression on the cell surface” value with M6PR [2] (O/N, different concentrations of PLX4720) is given as “substantial up-regulation of M6PR”. Further, the “time to maximum M6PR up-regulation” value in the series on M6PR [2] (hypoxic conditions) is not above 12 h. Also, the “sensitivity of tumor cells to TIL in cytotoxicity assay” value in the series on WM35-BR cells [3] was “increased sensitivity of tumor cells to TIL”. Further, the “GrzB uptake by tumor cells” value in the series on WM35 cells is given as “significant up-regulation of GrzB uptake”. Moreover, the “M6PR in tumor tissues by IHC” value in the series on M6PR [4] (50 mg/kg oral gavage for 5 days) is “marked up-regulation of M6PR in tumor tissues, which was lower than that observed in sensitive cell lines”. In addition, in the series on M6PR [4] (compared with sensitive lines), the “M6PR expression after treatment was stopped” value is recorded as “decreased more rapidly after treatment was stopped”. In addition, in the series on WM35-BR cells [6], the tumor growth result is given as “did not affect tumor growth”.
